For four compounds, IC50 results are on record in ChEMBL document CHEMBL2396545, “Quinoline drug-heme interactions and implications for antimalarial cytostatic versus cytocidal activities” (J Med Chem, 2013).

The nature of experiment [1]: Inhibition of hemozoin formation in 0.5 M acetate buffer at pH 4.8 after 12 hrs by microtiter plate-based high-throughput assay in presence of trophozoite lysate. Type of experiment: functional.
The nature of experiment [2]: Inhibition of hemozoin formation in 0.5 M acetate buffer at pH 4.8 after 24 hrs by microtiter plate-based high-throughput assay. Type of experiment: functional.
A short description of experiment [3]: Inhibition of hemozoin formation in 8 M acetate buffer at pH 5 after 18 hrs by microtiter plate-based high-throughput assay. The format is functional.
A short description of experiment [4]: Inhibition of hemozoin formation in 12.9 M acetate buffer at pH 4.5 at 60 degC after 1 hr by microtiter-based high-throughput assay. The format is functional.
Experiment [5] is described as follows: Inhibition of hemozoin formation in 0.5 M acetate buffer at pH 4.8 after 12 hrs by tube-based high-throughput assay. Type of experiment: functional.
Experiment [6] can be described thus: Inhibition of hemozoin formation by microtiter plate-based high-throughput assay. The format is functional.
A short description of experiment [7]: Inhibition of hemozoin formation in acetonitrile trophozoite extract by microtiter plate-based high-throughput assay. Type of experiment: functional.
Experiment [8] is described as follows: Inhibition of hemozoin formation in parasite digestive vacuole extract by microtiter plate-based high-throughput assay. The format is functional.
Experiment [9] is described as follows: Inhibition of hemozoin formation in 9.7 M acetate buffer at pH 4.8 at 60 degC after 2 hrs by microtiter-based high-throughput assay. The format is functional.
Experiment [10] is described as follows: Inhibition of hemozoin formation in 0.5 M acetate buffer at pH 4.8 after 16 hrs by tube-based high-throughput assay in presence of 0.002 mg/mL phosphatidylcholine. Type of experiment: functional.
Experiment [11] in a line: Inhibition of hemozoin formation in 0.1 M acetate buffer at pH 4.8 after 12 hrs by tube-based high-throughput assay in presence of Plasmodium yoelii homogenate. Type of experiment: functional, tissue-based.

For `CCN(CC)Cc1cc(Nc2ccnc3cc(Cl)ccc23)ccc1O`, the half-maximal inhibitory concentration (IC50) in [1] came out at 203 µM; in [2], 60 µM; in experiment [3] it was 0.85 µM; in experiment [4], 1.45 µM; in experiment [5], 15.1 µM; in [6], 60 µM. Moreover, the results for the concentration for half-maximal inhibition (IC50) in experiment [7], in experiment [8] and in experiment [9] were 73 µM, 60 µM and 67 µM, respectively.
`CCN(CC)CCCC(C)Nc1ccnc2cc(Cl)ccc12` (configuration not stated) [CHLOROQUINE]: the concentration for half-maximal inhibition (IC50) was determined as 400 µM in [1]; 45 µM in [2]; 1.63 µM in [3]; 1.91 µM in [4]; 24.4 µM in [5]; 117 µM in [10]. Moreover, the half-inhibitory concentration (IC50) in [6] came out at 45 µM; in [11] it was 43.8 µM; in experiment [8], 50 µM; in experiment [9], 374 µM.
Regarding `OC(c1cc(C(F)(F)F)nc2c(C(F)(F)F)cccc12)C1CCCCN1` (configuration not stated) [MEFLOQUINE], the IC50 in [1] was found to be 200 µM; in experiment [2], 120 µM; in experiment [3], 6.18 µM; in experiment [4] it was 2.9 µM; in experiment [5] it was 46.9 µM; in experiment [6], 120 µM. For the same compound, the 50% inhibitory concentration (IC50) in experiment [7] turned out to be 140 µM; in experiment [8] it was 80 µM; in experiment [9], 476 µM.
Turning to `C=C[C@H]1CN2CC[C@H]1C[C@H]2[C@H](O)c1ccnc2ccc(OC)cc12` [QUININE], the IC50 in [1] worked out at 430 µM; in [2] it was 160 µM; in [4], 3.5 µM; in experiment [5], 64.8 µM; in [10], 201 µM; in experiment [6] it was 160 µM. Further, the IC50 in [7] amounted to 78 µM; in [11], 41.6 µM; in experiment [8], 100 µM.

For orientation: IC50 means the concentration that inhibits the measured activity by half.
